Experimental findings from patent publication US20250009660A1, “LIPID COMPOUND, LIPOSOME, EXOSOME, LIPID NANOPARTICLE, AND DRUG DELIVERY SYSTEM” (NAGASAKI UNIVERSITY, priority 2021, published 2025) are described below.

Test [1] deals with C26. Briefly: Evaluation of cell binding properties / cell uptake of modified liposome. Type of test: cell-based, Mouse. The note with it: C26 cells; for cell uptake (cell binding properties): rhodamine-labeled liposome modified with the lipid compound (FIG. 13). An excerpt:
(§1) The liposome was modified with a lipid compound by a post-modification method using NanoAssemblr (nano pharmaceutical production apparatus; manufactured by Precision NanoSystems Inc.).

Test [2] has as its system NIH3T3. The description is as above. It is filed as cell-based, Mouse. The settings on record: NIH3T3 cells; for cell uptake (cell binding properties): rhodamine-labeled liposome modified with the lipid compound (FIG. 13).
Description: as §1

[3] abbreviates: liposome modified with the lipid, compared with KK-(EK)4 lipid-modified liposome (FIG. 15).

Entries after “also recorded” stand apart in the source; their conditions may differ.

With KK-(EK)4-dipalmitoyllysine [K2], the “cell uptake (cell binding properties)” value was “an increase in cell uptake was observed compared with the unmodified liposome; also recorded: In comparison with K1, the uptake of K2 increased in all of the cells” in test [1] and “an increase in cell uptake was observed compared with the unmodified liposome; also recorded: In comparison with K1, the uptake of K2 increased in all of the cells” in test [2].

Regarding K-(EK)4-dipalmitoyllysine [K1], the “cell uptake (cell binding properties)” value in test [1] and in test [2] was “an increase in cell uptake was observed compared with the unmodified liposome” throughout.

In the case of “RR-(EK)4-dipalmitoyllysine [RR-(EK)4 lipid]”, the cell binding properties result in test [1] (setting [3]) and in test [2] (setting [3]) was “the same cell binding properties were exhibited” each time.

On to KKK-(EK)4-dipalmitoyllysine [K3], for which the “cell uptake (cell binding properties)” value was “an increase in cell uptake was observed compared with the unmodified liposome; also recorded: the uptake of K3 and K4 when compared with K2 was the same” in test [1]; “an increase in cell uptake was observed compared with the unmodified liposome; also recorded: the uptake of K3 and K4 when compared with K2 was the same” in test [2].

In the case of KKKK-(EK)4-dipalmitoyllysine [K4], the “cell uptake (cell binding properties)” value in test [1] is “an increase in cell uptake was observed compared with the unmodified liposome; also recorded: the uptake of K3 and K4 when compared with K2 was the same”; in test [2] it was “an increase in cell uptake was observed compared with the unmodified liposome; also recorded: the uptake of K3 and K4 when compared with K2 was the same”.
